Assay results: the NIST ThermoML archive (doi:10.1016/j.jct.2012.11.010)
± gives the expanded uncertainty stated by the source.

Details: Liquid; for viscosity: 101.33 kPa, Falling or rolling sphere viscometry; for mass density: Vibrating tube method

CCCCCCCCCCCCCC[P+](CCCCCC)(CCCCCC)CCCCCC.FC(F)(F)C(F)(F)[P-](F)(F)(F)(C(F)(F)C(F)(F)F)C(F)(F)C(F)(F)F
Details | viscosity [mPa·s]
293.15 K | 470.83 ± 36
303.15 K | 259.01 ± 15
313.15 K | 155.29 ± 7.2
323.15 K | 94.33 ± 3.4
333.15 K | 65 ± 2
343.15 K | 42.67 ± 1.3
353.15 K | 30.35 ± 0.94
363.15 K | 22.81 ± 0.71
373.15 K | 17.53 ± 0.54

Details | mass density [kg/m3]
293.2 K, 100 kPa | 1185.7 ± 12
293.21 K, 500 kPa | 1185.9 ± 12
293.22 K, 1000 kPa | 1185.9 ± 12
293.22 K, 2500 kPa | 1186.7 ± 12
293.22 K, 5000 kPa | 1188.3 ± 12
293.22 K, 10000 kPa | 1191.3 ± 12
293.22 K, 25000 kPa | 1201.2 ± 12
293.23 K, 15000 kPa | 1194.7 ± 12
293.23 K, 20000 kPa | 1198 ± 12
303.19 K, 100 kPa | 1177.4 ± 12
303.19 K, 500 kPa | 1177.7 ± 12
303.19 K, 1000 kPa | 1177.7 ± 12
303.21 K, 2500 kPa | 1178.5 ± 12
303.22 K, 5000 kPa | 1180.1 ± 12
303.22 K, 10000 kPa | 1183.3 ± 12
303.23 K, 15000 kPa | 1186.8 ± 12
303.23 K, 20000 kPa | 1190.2 ± 12
303.25 K, 25000 kPa | 1193.5 ± 12
313.15 K, 100 kPa | 1169.1 ± 12
313.17 K, 500 kPa | 1169.4 ± 12
313.17 K, 1000 kPa | 1169.4 ± 12
313.17 K, 2500 kPa | 1170.3 ± 12
313.17 K, 5000 kPa | 1172 ± 12
313.17 K, 10000 kPa | 1175.4 ± 12
313.17 K, 15000 kPa | 1179.1 ± 12
313.17 K, 20000 kPa | 1182.6 ± 12
313.17 K, 25000 kPa | 1186 ± 12
323.14 K, 15000 kPa | 1171.1 ± 12
323.15 K, 500 kPa | 1161 ± 12
323.15 K, 1000 kPa | 1161.1 ± 12
323.15 K, 5000 kPa | 1163.8 ± 12
323.15 K, 10000 kPa | 1167.3 ± 12
323.15 K, 20000 kPa | 1174.7 ± 12
323.16 K, 100 kPa | 1160.6 ± 12
323.16 K, 2500 kPa | 1162 ± 12
323.16 K, 25000 kPa | 1178.3 ± 12
333.11 K, 100 kPa | 1152.6 ± 12
333.12 K, 500 kPa | 1152.9 ± 12
333.12 K, 1000 kPa | 1153 ± 12
333.12 K, 2500 kPa | 1154 ± 12
333.12 K, 10000 kPa | 1159.5 ± 12
333.13 K, 5000 kPa | 1156.8 ± 12
333.13 K, 15000 kPa | 1163.4 ± 12
333.13 K, 25000 kPa | 1171 ± 12
333.14 K, 20000 kPa | 1167.2 ± 12
343.07 K, 500 kPa | 1145 ± 12
343.07 K, 1000 kPa | 1145.1 ± 12
343.08 K, 2500 kPa | 1146.1 ± 12
343.08 K, 10000 kPa | 1151.9 ± 12
343.08 K, 15000 kPa | 1156 ± 12
343.09 K, 5000 kPa | 1148.1 ± 12
343.09 K, 25000 kPa | 1163.7 ± 12
343.1 K, 20000 kPa | 1159.9 ± 12
343.13 K, 100 kPa | 1144.5 ± 11
353.2 K, 100 kPa | 1136.5 ± 11
353.22 K, 500 kPa | 1137 ± 11
353.22 K, 2500 kPa | 1138.2 ± 11
353.22 K, 5000 kPa | 1140.2 ± 11
353.23 K, 1000 kPa | 1137.1 ± 11
353.23 K, 10000 kPa | 1144.2 ± 11
353.23 K, 15000 kPa | 1148.4 ± 12
353.25 K, 20000 kPa | 1152.5 ± 12
353.25 K, 25000 kPa | 1156.4 ± 12

CCCC[N+]1(C)CCCC1.FC(F)(F)C(F)(F)[P-](F)(F)(F)(C(F)(F)C(F)(F)F)C(F)(F)C(F)(F)F
Details | viscosity [mPa·s]
293.15 K | 333.79 ± 22
303.15 K | 179.86 ± 8.9
313.15 K | 106 ± 4
323.15 K | 68.08 ± 2.1
333.15 K | 45.37 ± 1.4
343.15 K | 31.9 ± 0.99
353.15 K | 23.42 ± 0.72
363.15 K | 17.58 ± 0.54
373.15 K | 13.71 ± 0.42

Details | mass density [kg/m3]
293.17 K, 5000 kPa | 1606.7 ± 16
293.17 K, 10000 kPa | 1610.2 ± 16
293.17 K, 15000 kPa | 1614.1 ± 16
293.17 K, 20000 kPa | 1618 ± 16
293.17 K, 25000 kPa | 1621.7 ± 16
293.18 K, 2500 kPa | 1604.9 ± 16
293.19 K, 100 kPa | 1603.7 ± 16
293.19 K, 500 kPa | 1604 ± 16
293.19 K, 1000 kPa | 1603.9 ± 16
303.18 K, 100 kPa | 1592.8 ± 16
303.19 K, 1000 kPa | 1593.1 ± 16
303.2 K, 500 kPa | 1593.1 ± 16
303.25 K, 10000 kPa | 1599.5 ± 16
303.25 K, 20000 kPa | 1607.6 ± 16
303.25 K, 25000 kPa | 1611.4 ± 16
303.26 K, 2500 kPa | 1593.9 ± 16
303.26 K, 5000 kPa | 1595.8 ± 16
303.26 K, 15000 kPa | 1603.6 ± 16
313.19 K, 10000 kPa | 1589.1 ± 16
313.2 K, 100 kPa | 1581.9 ± 16
313.2 K, 500 kPa | 1582.3 ± 16
313.2 K, 1000 kPa | 1582.3 ± 16
313.2 K, 5000 kPa | 1585.3 ± 16
313.2 K, 20000 kPa | 1597.4 ± 16
313.21 K, 2500 kPa | 1583.3 ± 16
313.21 K, 15000 kPa | 1593.3 ± 16
313.21 K, 25000 kPa | 1601.4 ± 16
323.14 K, 100 kPa | 1571 ± 16
323.14 K, 500 kPa | 1571.4 ± 16
323.14 K, 2500 kPa | 1572.5 ± 16
323.14 K, 10000 kPa | 1578.5 ± 16
323.14 K, 15000 kPa | 1582.9 ± 16
323.14 K, 20000 kPa | 1587.2 ± 16
323.14 K, 25000 kPa | 1591.3 ± 16
323.15 K, 1000 kPa | 1571.5 ± 16
323.15 K, 5000 kPa | 1574.6 ± 16
333.17 K, 100 kPa | 1560.4 ± 16
333.17 K, 500 kPa | 1560.8 ± 16
333.17 K, 1000 kPa | 1560.9 ± 16
333.17 K, 5000 kPa | 1564.2 ± 16
333.18 K, 2500 kPa | 1562 ± 16
333.18 K, 10000 kPa | 1568.2 ± 16
333.18 K, 15000 kPa | 1572.7 ± 16
333.18 K, 20000 kPa | 1577.2 ± 16
333.18 K, 25000 kPa | 1581.4 ± 16
343.16 K, 100 kPa | 1549.9 ± 16
343.17 K, 500 kPa | 1550.4 ± 16
343.18 K, 1000 kPa | 1550.5 ± 16
343.19 K, 2500 kPa | 1551.6 ± 16
343.2 K, 5000 kPa | 1553.9 ± 16
343.2 K, 10000 kPa | 1558.1 ± 16
343.2 K, 15000 kPa | 1562.8 ± 16
343.2 K, 20000 kPa | 1567.4 ± 16
343.21 K, 25000 kPa | 1571.7 ± 16
353.17 K, 100 kPa | 1539.5 ± 15
353.17 K, 500 kPa | 1540.1 ± 15
353.17 K, 5000 kPa | 1543.8 ± 15
353.18 K, 1000 kPa | 1540.3 ± 15
353.18 K, 2500 kPa | 1541.4 ± 15
353.18 K, 15000 kPa | 1553 ± 16
353.19 K, 10000 kPa | 1548.2 ± 16
353.19 K, 20000 kPa | 1557.7 ± 16
353.19 K, 25000 kPa | 1562.2 ± 16
